The values that follow are results of earlier work, collected in patent US8846083B2, “Method for the diffusion of molecules which are insoluble in an aqueous medium and composition using said method” (priority 2004, dated 2014).

For series [1] the following is noted: administered via the digestive tract.
The conditions of series [2]: administered via the digestive tract. The source holds these as a separate data set.

As for `CC(C(=O)O)c1cccc(C(=O)c2ccccc2)c1` (stereo not shown) [ketoprofen], the “duration of pharmacological effects” value in series [1] was 1.5 hour. In series [2], the “time at which the maximum concentration of the active ingredient in the blood is reached” value was 75 min.

Consider `CC(C)Cc1ccc(C(C)C(=O)O)cc1` (stereo not shown) [ibuprofen], for which, in series [1], the “duration of pharmacological effects” value is listed as “approximately 2 hour”. Also, the “time at which the maximum concentration of the active ingredient in the blood is reached” value in series [2] is 90 min.
